The source made the active and inactive calls. The calls are words filed in the database; no cut-off is given here.
How the values were obtained:
[1] = biological target: T1, Dual specificity tyrosine-phosphorylation-regulated kinase 2 (Homo sapiens) (UniProt Q92630); experiment: Inhibition of human DYRK2 at 500 nM by HotSpot assay relative to control
T1 sequence (whole entry): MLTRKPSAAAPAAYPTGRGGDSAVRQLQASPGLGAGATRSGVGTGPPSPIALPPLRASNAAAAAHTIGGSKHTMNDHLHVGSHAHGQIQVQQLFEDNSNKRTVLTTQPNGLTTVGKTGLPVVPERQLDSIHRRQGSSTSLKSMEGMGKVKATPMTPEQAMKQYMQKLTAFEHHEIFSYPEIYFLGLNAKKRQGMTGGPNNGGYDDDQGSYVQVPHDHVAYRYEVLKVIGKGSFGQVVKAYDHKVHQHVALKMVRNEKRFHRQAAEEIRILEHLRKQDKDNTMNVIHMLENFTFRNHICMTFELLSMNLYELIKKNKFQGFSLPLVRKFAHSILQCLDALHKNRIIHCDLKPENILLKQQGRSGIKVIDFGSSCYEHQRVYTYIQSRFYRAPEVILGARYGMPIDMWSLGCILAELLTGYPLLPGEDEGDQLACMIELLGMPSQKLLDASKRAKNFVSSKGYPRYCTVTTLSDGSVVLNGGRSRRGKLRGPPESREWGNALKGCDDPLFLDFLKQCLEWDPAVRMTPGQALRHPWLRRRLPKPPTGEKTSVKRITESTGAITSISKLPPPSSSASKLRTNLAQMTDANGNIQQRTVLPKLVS

[2] = biological target: T2, cGMP-dependent protein kinase 1 (Homo sapiens) (UniProt Q13976); experiment: Inhibition of human PKG1b at 500 nM by HotSpot assay relative to control
T2 sequence (whole entry): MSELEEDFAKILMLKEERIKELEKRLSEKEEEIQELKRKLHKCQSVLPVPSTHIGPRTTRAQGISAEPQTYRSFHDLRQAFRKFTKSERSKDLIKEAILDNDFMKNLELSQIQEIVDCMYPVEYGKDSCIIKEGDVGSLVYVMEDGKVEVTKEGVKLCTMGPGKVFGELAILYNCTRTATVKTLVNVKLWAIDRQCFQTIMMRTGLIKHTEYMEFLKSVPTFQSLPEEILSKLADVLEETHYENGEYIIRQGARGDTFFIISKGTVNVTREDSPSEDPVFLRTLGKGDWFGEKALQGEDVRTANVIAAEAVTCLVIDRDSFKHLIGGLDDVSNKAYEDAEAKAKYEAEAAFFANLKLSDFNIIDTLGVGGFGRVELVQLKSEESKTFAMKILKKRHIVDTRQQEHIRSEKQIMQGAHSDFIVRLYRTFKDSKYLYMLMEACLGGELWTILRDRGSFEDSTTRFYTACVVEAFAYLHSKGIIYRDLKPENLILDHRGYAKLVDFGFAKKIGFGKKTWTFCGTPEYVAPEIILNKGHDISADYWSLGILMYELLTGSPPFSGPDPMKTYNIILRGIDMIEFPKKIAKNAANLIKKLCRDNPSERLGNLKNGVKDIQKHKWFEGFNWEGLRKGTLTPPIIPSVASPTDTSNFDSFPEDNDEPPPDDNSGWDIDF

[3] = biological target: T3, cAMP-dependent protein kinase catalytic subunit PRKX (Homo sapiens) (UniProt P51817); experiment: Inhibition of human PRKX at 500 nM by HotSpot assay relative to control
T3 sequence (whole entry): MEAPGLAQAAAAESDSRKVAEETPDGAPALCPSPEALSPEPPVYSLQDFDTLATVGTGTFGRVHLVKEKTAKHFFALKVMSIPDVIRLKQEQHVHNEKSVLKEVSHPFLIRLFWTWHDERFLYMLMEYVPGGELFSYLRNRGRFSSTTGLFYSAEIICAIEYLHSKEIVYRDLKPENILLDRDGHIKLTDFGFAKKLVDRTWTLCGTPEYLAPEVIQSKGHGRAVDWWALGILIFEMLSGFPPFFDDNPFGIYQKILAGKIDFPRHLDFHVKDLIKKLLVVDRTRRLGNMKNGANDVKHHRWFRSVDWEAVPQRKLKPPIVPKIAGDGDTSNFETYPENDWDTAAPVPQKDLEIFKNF

[4] = biological target: Leucine-rich repeat serine/threonine-protein kinase 2 (Homo sapiens) (UniProt Q5S007); experiment: Inhibition of human LRRK2 at 500 nM by HotSpot assay relative to control
Chain of Leucine-rich repeat serine/threonine-protein kinase 2 (Homo sapiens) (Q5S007 whole entry): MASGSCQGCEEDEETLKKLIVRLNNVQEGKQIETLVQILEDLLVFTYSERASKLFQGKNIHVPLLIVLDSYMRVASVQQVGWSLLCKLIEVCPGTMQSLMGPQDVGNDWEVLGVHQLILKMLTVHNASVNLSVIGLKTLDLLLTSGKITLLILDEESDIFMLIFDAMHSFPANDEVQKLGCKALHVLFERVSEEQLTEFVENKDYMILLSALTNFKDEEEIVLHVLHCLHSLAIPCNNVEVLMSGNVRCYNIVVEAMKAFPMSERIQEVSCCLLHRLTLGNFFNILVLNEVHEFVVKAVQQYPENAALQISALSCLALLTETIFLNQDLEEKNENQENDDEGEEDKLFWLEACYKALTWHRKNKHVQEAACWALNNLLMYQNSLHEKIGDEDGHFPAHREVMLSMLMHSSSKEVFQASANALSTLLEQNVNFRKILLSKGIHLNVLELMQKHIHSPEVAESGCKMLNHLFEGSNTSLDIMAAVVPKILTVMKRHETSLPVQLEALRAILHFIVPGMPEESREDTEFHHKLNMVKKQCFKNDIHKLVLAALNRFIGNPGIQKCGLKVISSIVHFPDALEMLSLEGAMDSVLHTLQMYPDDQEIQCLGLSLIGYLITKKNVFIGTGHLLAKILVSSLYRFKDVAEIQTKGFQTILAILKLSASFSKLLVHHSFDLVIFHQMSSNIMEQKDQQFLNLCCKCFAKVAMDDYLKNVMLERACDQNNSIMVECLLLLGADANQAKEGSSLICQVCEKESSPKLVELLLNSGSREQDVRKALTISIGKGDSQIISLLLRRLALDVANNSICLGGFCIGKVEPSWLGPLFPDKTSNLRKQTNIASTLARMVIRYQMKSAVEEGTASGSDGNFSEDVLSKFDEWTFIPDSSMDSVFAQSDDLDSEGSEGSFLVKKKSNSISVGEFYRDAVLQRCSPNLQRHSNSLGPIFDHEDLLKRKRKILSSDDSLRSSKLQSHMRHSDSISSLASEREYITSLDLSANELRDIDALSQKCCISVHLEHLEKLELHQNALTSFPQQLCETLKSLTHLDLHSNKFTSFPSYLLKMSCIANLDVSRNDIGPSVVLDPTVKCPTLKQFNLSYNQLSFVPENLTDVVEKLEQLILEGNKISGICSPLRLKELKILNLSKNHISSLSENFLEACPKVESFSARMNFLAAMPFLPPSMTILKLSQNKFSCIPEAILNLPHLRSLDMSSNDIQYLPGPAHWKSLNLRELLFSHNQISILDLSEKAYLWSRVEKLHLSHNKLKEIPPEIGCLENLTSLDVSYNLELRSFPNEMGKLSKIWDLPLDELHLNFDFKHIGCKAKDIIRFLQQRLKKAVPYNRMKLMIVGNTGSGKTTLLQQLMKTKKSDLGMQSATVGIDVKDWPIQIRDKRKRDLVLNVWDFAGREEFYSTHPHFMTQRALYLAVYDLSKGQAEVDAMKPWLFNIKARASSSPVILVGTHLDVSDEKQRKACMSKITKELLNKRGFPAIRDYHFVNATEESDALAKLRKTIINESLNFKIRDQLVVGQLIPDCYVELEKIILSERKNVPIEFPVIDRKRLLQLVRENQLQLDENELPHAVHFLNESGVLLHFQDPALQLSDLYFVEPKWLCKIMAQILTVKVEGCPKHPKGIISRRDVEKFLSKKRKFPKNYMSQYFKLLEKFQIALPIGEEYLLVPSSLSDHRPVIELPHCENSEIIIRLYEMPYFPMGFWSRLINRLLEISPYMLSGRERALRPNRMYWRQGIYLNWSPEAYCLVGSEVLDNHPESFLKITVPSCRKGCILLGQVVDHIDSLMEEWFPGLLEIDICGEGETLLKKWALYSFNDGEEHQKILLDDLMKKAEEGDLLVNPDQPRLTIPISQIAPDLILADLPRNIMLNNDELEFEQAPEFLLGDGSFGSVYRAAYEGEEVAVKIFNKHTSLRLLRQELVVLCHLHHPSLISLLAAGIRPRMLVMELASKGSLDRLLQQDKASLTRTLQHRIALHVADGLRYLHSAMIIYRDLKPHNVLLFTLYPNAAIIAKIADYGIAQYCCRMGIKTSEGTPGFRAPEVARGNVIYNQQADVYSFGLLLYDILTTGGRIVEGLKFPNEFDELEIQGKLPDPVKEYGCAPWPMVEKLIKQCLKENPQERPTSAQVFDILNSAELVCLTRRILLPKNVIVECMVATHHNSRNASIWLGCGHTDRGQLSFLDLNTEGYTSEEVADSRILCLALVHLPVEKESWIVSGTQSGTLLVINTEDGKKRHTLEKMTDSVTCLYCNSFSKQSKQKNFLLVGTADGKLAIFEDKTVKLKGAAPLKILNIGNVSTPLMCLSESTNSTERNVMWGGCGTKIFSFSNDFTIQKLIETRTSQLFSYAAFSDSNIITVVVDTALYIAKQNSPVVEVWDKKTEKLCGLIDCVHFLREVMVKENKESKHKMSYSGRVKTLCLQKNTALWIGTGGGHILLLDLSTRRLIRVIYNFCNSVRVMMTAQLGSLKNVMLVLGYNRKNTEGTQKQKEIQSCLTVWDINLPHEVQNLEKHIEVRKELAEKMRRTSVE

[5] = biological target: T4, Inhibitor of nuclear factor kappa-B kinase subunit epsilon (Homo sapiens) (UniProt Q14164); experiment: Inhibition of human IKKe at 500 nM by HotSpot assay relative to control
T4 sequence (whole entry): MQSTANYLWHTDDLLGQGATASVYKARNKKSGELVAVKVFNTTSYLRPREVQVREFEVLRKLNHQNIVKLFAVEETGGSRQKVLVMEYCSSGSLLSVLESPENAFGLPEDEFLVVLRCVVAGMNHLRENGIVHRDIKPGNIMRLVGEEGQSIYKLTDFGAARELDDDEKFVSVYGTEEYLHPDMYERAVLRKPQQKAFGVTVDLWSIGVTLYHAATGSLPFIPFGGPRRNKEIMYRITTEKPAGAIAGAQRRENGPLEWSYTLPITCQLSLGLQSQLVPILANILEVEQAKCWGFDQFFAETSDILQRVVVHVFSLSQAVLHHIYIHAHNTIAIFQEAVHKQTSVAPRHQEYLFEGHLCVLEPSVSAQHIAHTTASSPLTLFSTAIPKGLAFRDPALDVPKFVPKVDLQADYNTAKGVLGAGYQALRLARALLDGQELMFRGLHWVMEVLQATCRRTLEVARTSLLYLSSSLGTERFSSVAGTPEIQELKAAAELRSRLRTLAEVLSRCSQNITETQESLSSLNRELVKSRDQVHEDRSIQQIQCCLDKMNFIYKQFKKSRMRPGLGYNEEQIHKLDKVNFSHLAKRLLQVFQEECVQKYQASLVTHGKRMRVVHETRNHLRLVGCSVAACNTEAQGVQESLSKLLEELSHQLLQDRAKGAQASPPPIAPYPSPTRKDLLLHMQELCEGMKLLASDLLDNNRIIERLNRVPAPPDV

[6] = Inhibition of unphosphorylated human Insulin receptor (978 to 1283 residues) C981S mutant kinase domain expressed in baculovirus infected Sf9 cells incubated for 1 hr by [gamma-33P]ATP assay
[7] = biological target: Dual specificity tyrosine-phosphorylation-regulated kinase 1A (Homo sapiens) (UniProt Q13627); experiment: Inhibition of human DYRK1 at 500 nM by HotSpot assay relative to control
[8] = biological target: Interleukin-1 receptor-associated kinase 1 (Homo sapiens) (UniProt P51617); experiment: Inhibition of human IRAK1 at 500 nM by HotSpot assay relative to control
Chain of Interleukin-1 receptor-associated kinase 1 (Homo sapiens) (P51617 whole entry, looked up): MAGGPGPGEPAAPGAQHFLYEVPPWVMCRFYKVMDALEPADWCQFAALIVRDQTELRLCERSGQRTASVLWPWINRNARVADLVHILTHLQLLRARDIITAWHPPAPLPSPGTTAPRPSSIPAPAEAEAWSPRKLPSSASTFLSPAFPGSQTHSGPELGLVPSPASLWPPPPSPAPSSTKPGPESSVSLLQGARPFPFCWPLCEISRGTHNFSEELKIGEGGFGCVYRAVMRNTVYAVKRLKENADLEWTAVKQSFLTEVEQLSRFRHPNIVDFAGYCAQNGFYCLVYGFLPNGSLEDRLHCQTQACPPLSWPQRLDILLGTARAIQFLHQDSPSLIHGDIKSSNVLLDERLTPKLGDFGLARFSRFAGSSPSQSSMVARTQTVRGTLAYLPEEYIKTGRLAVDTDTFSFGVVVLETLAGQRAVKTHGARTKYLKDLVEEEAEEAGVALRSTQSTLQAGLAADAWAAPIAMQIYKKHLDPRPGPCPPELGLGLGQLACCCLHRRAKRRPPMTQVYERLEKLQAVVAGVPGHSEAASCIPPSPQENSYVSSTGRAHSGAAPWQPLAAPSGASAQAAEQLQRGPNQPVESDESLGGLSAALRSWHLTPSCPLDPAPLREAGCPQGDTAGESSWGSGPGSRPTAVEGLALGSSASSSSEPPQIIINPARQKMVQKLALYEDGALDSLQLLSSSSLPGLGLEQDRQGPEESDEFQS

[9] = biological target: MAP kinase-interacting serine/threonine-protein kinase 2 (Homo sapiens) (UniProt Q9HBH9); experiment: Inhibition of human MNK2 at 500 nM by HotSpot assay relative to control
Chain of MAP kinase-interacting serine/threonine-protein kinase 2 (Homo sapiens) (Q9HBH9 whole entry, looked up): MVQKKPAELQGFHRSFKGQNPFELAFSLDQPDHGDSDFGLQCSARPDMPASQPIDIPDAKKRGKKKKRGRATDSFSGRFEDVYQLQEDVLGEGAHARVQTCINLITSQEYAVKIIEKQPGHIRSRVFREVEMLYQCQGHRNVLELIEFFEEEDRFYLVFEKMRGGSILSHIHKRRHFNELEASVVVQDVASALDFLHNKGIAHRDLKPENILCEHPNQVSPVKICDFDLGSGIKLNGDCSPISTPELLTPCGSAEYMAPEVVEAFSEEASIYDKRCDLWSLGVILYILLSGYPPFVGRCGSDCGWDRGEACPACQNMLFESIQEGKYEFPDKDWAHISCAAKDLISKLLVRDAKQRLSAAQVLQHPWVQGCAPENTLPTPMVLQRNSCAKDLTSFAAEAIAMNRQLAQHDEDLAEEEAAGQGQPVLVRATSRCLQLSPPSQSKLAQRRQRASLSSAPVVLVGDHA

[10] = biological target: Cyclin-dependent kinase 4/cyclin D1 (Homo sapiens) (UniProt P11802+P24385); experiment: Inhibition of human CDK4/cyclin D1 at 500 nM by HotSpot assay relative to control; format: protein-complex assay

Structure (SMILES) | inhibition [1] [%] | inhibition [2] [%] | inhibition [3] [%] | inhibition [4] [%] | inhibition [5] [%] | inhibition [6] | inhibition [7] [%] | inhibition [8] [%] | inhibition [9] [%] | inhibition [10] [%]
Nc1n[nH]c2nnc(-c3c(-c4ccccc4)nn4ccccc34)cc12 | -3.42 | 10.5 | -0.73 | 8.17 | 4.54 | Active | -1.99 | 0.31 | 1.7 | 10.8
Oc1n[nH]c2nnc(-c3c(-c4ccccc4)nn4ccccc34)cc12 | -3.03 | 10.6 | -3.08 | -1.49 | 0.81 | Active | -2.58 | -2.21 | -6.03 | 1.57

From ChEMBL document CHEMBL5653615 (J Biol Chem, 2013)
